Assay results reported in US20060183119A1, “Method for determining predisposition to a physiological reaction in a patient” (UNIVERSITE LAVAL, priority 2002, published 2006).
Residue numbers refer to the chain shown, from its start.

Tests used:
Assay type in all cases: in vitro ADME
Parameters in all cases: key to Function (SN-38G formation versus *1 allele): High: no significant difference in activity compared to *1 allele.; Low: significantly lower SN-38G formation versus *1 allele
UGT1A7*7 = molecular target: T1, UGT1A7*7 (Homo sapiens, UniProt Q9HAW7, E139D/N129K/R131K); assay: SN-38 glucuronidation by microsomes of HEK293 cells expressing UGT1A7*7
T1 construct: expressed in transfected cells
T1 sequence (Q9HAW7 26-530 N129K/R131K/E139D): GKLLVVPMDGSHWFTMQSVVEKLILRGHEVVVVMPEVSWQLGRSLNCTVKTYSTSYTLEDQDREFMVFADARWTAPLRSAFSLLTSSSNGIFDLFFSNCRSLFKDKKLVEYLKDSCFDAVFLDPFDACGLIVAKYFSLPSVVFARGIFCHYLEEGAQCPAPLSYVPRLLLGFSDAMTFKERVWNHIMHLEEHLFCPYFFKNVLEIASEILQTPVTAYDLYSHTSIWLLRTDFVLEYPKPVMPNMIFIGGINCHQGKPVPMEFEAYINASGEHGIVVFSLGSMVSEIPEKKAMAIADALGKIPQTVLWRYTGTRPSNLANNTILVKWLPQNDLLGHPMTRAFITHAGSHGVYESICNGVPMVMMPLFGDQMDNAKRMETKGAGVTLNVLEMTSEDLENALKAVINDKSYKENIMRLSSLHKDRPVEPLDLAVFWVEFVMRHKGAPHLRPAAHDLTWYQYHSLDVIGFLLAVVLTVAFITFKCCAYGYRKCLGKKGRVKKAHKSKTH
Protocol: (§1) Western blot analyses of UGT1A7 and UGT1A9 variants expressed in HEK293 cells were performed on microsomal proteins (10 μg) separated on a 10% SDS-polyacrylamide gel. After transferring the proteins, the membranes were probed with an anti-UGT1A RC-71 polyclonal antibody and with an anti-calnexin antibody. The relative levels of UGT1A9 (a) and UGT1A7 proteins (b) were determined by semi-quantitative densitometric analysis of the Enhanced chemiluminescence (ECL) image. The in vitro SN-38 activity was assessed using microsomal fractions prepared from HEK293 cells expressing the *1 and variant UGT1A9 (c) and UGT1A7 (d) alleles and incubated with 5 μM of SN-38 as described in Materials and Methods.
(§2) For the determination of Vmax and Km.

UGT1A7*5 = molecular target: T2, UGT1A7*5 (Homo sapiens, UniProt Q9HAW7, G115S); assay: SN-38 glucuronidation by microsomes of HEK293 cells expressing UGT1A7*5
T2 construct: expressed in transfected cells
T2 sequence (Q9HAW7 26-530 G115S): T1 sequence (Q9HAW7 26-530 N129K/R131K/E139D) with G90S, K104N, K106R, D114E
Protocol: as §1, §2

UGT1A7*6 = molecular target: T3, UGT1A7*6 (Homo sapiens, UniProt Q9HAW7, E139D); assay: SN-38 glucuronidation by microsomes of HEK293 cells expressing UGT1A7*6
T3 construct: expressed in transfected cells
T3 sequence (Q9HAW7 26-530 E139D): T1 sequence (Q9HAW7 26-530 N129K/R131K/E139D) with K104N, K106R
Protocol: as §1, §2

UGT1A7*4 = molecular target: T4, UGT1A7*4 (Homo sapiens, UniProt Q9HAW7, W208R); assay: SN-38 glucuronidation by microsomes of HEK293 cells expressing UGT1A7*4
T4 construct: expressed in transfected cells
T4 sequence (Q9HAW7 26-530 W208R): T1 sequence (Q9HAW7 26-530 N129K/R131K/E139D) with K104N, K106R, D114E, W183R
Protocol: as §1, §2

[1] = range given for *5, *7 and *8 together

## CCc1c2c(nc3ccc(O)cc13)-c1cc3c(c(=O)n1C2)COC(=O)[C@]3(O)CC [SN-38, 7-ethyl-10-hydroxycamptothecin]
UGT1A7*7; in vitro experiments
  Function (SN-38G formation versus *1 allele): High
UGT1A7*7; [1]
  lower rates of SN-38G formation compared to UGT1A7*1: 38-76%
UGT1A7*5
  SN-38 glucuronidating activity of the allele (in words): low
UGT1A7*5; in vitro experiments
  Function (SN-38G formation versus *1 allele): Low
UGT1A7*5; [1]
  lower rates of SN-38G formation compared to UGT1A7*1: 38-76%
UGT1A7*6
  SN-38 glucuronidating activity of the allele (in words): highest
UGT1A7*6; in vitro experiments
  Function (SN-38G formation versus *1 allele): High
UGT1A7*4
  SN-38 glucuronidating activity of the allele (in words): low
UGT1A7*4; in vitro experiments
  Function (SN-38G formation versus *1 allele): Low
